The values below are quoted from earlier work in patent US9314524B2, “Topical formulations of Flucytosine” (priority 2007, dated 2016).

Data set [1] concerns 227 clinical yeast isolates. The conditions noted are these: for cross-resistance in fluconazole/itraconazole resistant C. albicans isolates: polyene antibiotics.
The test system of another data set is C. albicans. The conditions noted are these: yeasts from 104 patients with vulvovaginal candidiasis.
The subject of the next data set is Candida albicans. The note with it: 342 Candida albicans strains.
The subject of another data set is Candida glabrata. The note with it: 68 Candida glabrata strains.
In another data set the test system is Candida parapsilosis. The note with it: 65 Candida parapsilosis strains.
A further data set has as its system C. tropicalis. The note with it: 200-mg for 14 days, second line, 3 patients treated.
The test system of the next data set is Candida tropicalis. The note with it: 70 Candida tropicalis strains.
For the next data set, the system named is C. glabrata. The conditions noted are these: 600-mg day for 2 to 3 weeks.
For data set [2] the following is noted: human, in vivo.

In the case of `C[C@@H]1[C@H](O)[C@@H](C)/C=C/C=C/CC/C=C/C=C/C=C/C=C/C(O[C@H]2O[C@H](C)[C@@H](O)[C@H](N)[C@@H]2O)CC2O[C@](O)(CC(O)C(O)CCC(O)CC(O)CC(O)CC(=O)O[C@H]1C)CC(O)C2C(=O)O` (stereo partly drawn) [nystatin], the “cross-resistance in fluconazole/itraconazole resistant C. albicans isolates” value in data set [1] is reported as “no cross-resistance”.
`OC(Cn1cncn1)(Cn1cncn1)c1ccc(F)cc1F` [fluconazole]: in [1] (227 vaginal clinical yeast isolates), the yeast strains resistant entry is given as “thirteen”. The “resistant C. albicans isolated, share of cases” value in the data set on C. albicans is recorded as 13.46%. For the same compound, the isolates showing resistance in the data set on Candida albicans was 7.6%. In addition, the isolates demonstrating resistance in the data set with Candida glabrata was 10.3%; in the data set on Candida parapsilosis, 4.6%.
Take `C[C@@H]1[C@H](O)[C@@H](C)/C=C/C=C/C=C/C=C/C=C/C=C/C=C/[C@H](O[C@@H]2O[C@H](C)[C@@H](O)[C@H](N)[C@@H]2O)C[C@@H]2O[C@](O)(C[C@@H](O)C[C@@H](O)[C@H](O)CC[C@@H](O)C[C@@H](O)CC(=O)O[C@H]1C)C[C@H](O)[C@H]2C(=O)O` [amphotericin B]: in data set [1], the “cross-resistance in fluconazole/itraconazole resistant C. albicans isolates” value is listed as “no cross-resistance”.
Consider `CC(=O)N1CCN(c2ccc(OCC3COC(Cn4ccnc4)(c4ccc(Cl)cc4Cl)O3)cc2)CC1` (stereo not drawn) [ketoconazole], for which the “patients in whom the infection recurred” value in the data set with C. tropicalis was “three”. Further, the isolates resistant in the data set with Candida tropicalis is 2.9%.
Consider `OB(O)O` [boric acid], for which, in the data set on C. glabrata, the “clinical and mycological success” value is 64%; the “clinical and mycological success, symptomatic women” value is recorded as 47 of 73.
Regarding `Nc1nc(=O)[nH]cc1F` [flucytosine, 4-amino-5-fluoropyrimidin-2(1H)-one], the “plasma level that led to bone marrow depression and hepatotoxicity” value in data set [2] was “greater than 100 mg/L”.
